Experimental data as given in patent publication US20090299034A1, “Collagen-related peptides” (priority 2007, published 2009).

Legend:
[1] = system: washed platelets; test: Inhibition of platelet aggregation induced by collagen or CRP trimer SEQ ID 145; assay type: cell-based, human; details: GPIIb/IIIa antagonist at 10, 100 and 1000 nM, 5 min pre-incubation
[2] = system: washed platelets; test: Human platelet aggregation assay; assay type: cell-based; details: for EC50 ± SEM platelet aggregation: Table 3
Method: Human platelet-rich plasma (PRP) concentrate from healthy volunteers was purchased from Biological Specialties, Inc. (Colmar, Pa.). […] The PRP was centrifuged at 730 g for 15 min. The resulting platelet pellet was washed twice in CGS buffer (13 mM sodium citrate, 30 mM glucose, 120 mM NaCl, pH 6.5) containing 1 U/mL apyrase (grade V, Sigma-Aldrich) and resuspended in Tyrode's buffer (140 mM NaCl, 2.7 mM KCl, 12 mM NaHCO3, 0.76 mM Na2HPO4, 5.5 mM dextrose, 5.0 mM Hepes, 0.2% BSA, pH 7.4). The “washed” platelets were diluted to 3×10^8 platelets/mL and kept >45 min at 37° C. before use.
For the assay, 105 μL of washed platelets, 2 mM CaCl2 and […] of fibrinogen were added to a 96-well microtiter plate. Platelet aggregation was initiated by the addition of serial concentrations of native collagen fibrils (equine type I; 92% identity with human collagen sequence; Chrono-log Corp., Havertown, Pa.) or test peptides. Buffer was added to one set of control wells. The assay plate was stirred constantly and intermittently placed in a microplate reader (Softmax, Molecular Devices, Menlo Park, Calif.) to read optical density (650 nm) at 0 and 5 min after the addition of the compound solutions. Aggregation was calculated as the decrease in optical density between the time-0 and 5-min measurements and expressed as percent of aggregation.
Peptides were dissolved in PBS (pH 7) or water (final pH 5) to a concentration of 2 mg/mL. Some samples were heated in a water bath (70° C.) for 10 min, filtered through a 0.45-μm filter and incubated for 24 h or 7 days at 4° C. […] (H+F) and re-annealed at 4° C.

In the case of `O=C(O)C[C@H](NC(=O)[C@@H]1CCCN(C(=O)CCC2CCNCC2)C1)c1cccnc1` [elarofiban], the “inhibition of platelet aggregation induced by CRP trimer having SEQ ID 145” value [1] is reported as “dose-dependent inhibition” and the “inhibition of platelet aggregation induced by collagen” value [1] is reported as “dose-dependent inhibition”.
(Pro-Xaa-Gly)10 [SEQ ID 154] was tested, and the “induction of platelet aggregation” value ([2]; Example 4) was “failed to aggregate platelets”, the “stimulation of platelet aggregation” value ([2]; Example 6, FIG. 1) was “not effective” and the “EC50 ± SEM platelet aggregation” value ([2]; PBS, H + F, pH 7, incubation 24 h) was “Not Active”.
With Collagen the “EC50 values (±SEM) platelet aggregation” value ([2]; Example 6, FIG. 1, Table 4) was 0.56 ± 0.09 µg/mL and the “EC50 ± SEM platelet aggregation” value ([2]; native collagen fibrils, no peptide preparation) was 0.25 µg/mL.
